System: chick aorta
Test: aortic ring assay: chick aorta pieces in culture with angiogenic agents
Type: cell-based
Conditions: for resumption of angiogenesis / regrowth of capillary-like structures on removal: after removal of the agent, relative to tissue not treated with antiangiogenic agents (control); for inhibition of angiogenesis compared with the E/Z mixture: E-isomer vs E/Z mixture 5
Procedure: Biological activity in angiogenic assays were chosen as a way to compare anti-angiogenic activity, potency an reversibility of inhibition. The studies were conducted on pieces of chick aorta placed in culture with a mixture of angiogenic agents and various compounds.
Unresolved mixture of E/Z-isomers 5 and isolated E-isomer 1 from the series of compounds under study were assessed for desirable biological activities, i.e., antiangiogenic activity and persistence of inhibitory activity. It is well known that binding vascular endothelial growth factor with antibodies or aptamers or inhibiting VEGF signaling with small molecules reduces and even reverses angiogenesis. However, angiogenesis rapidly resumes once the agent is removed (Mancuso et al., J. Clin. Invest., 116:610-21, 2006; Baffert et al., Am. J. Physiol. Heart, 290:H509-11, 2006). In the case of tumors, rapid regrowth of new vessels contributes to the regrowth and survival of the tumor.

SMILES | resumption of angiogenesis / regrowth of capillary-like structures on removal [%] | inhibition of angiogenesis compared with the E/Z mixture (comparison in words) | inhibition of angiogenesis compared with the E/Z mixture (comparison in words, listed as E-isomer) | resumption of angiogenesis compared with the E/Z parent compound (comparison in words, after removal) | inhibition of capillary outgrowth (aortic ring assay, compound present) [%]
Nc1nc(N)c2c(/C=C/c3ccc4ccccc4c3)coc2n1 (single isomer, unassigned; isomer 1) [E-isomer 1, 5-E-(2-naphthalen-2-yl-vinyl)-furo[2,3-d]pyrimidine-2,4-diamine] | 31 | comparable inhibition of angiogenesis | greater inhibition on a molar basis | less resumption of angiogenesis | 
Nc1nc(N)c2c(C=Cc3ccc4ccccc4c3)coc2n1 [E/Z mixture 5, 5-Z/E-(2-naphthalen-2-yl-vinyl)-furo[2,3-d]pyrimidine-2,4-diamine] | ~72 |  |  |  | 84
